Patent US20120219613A1 (priority 2009, published 2012)
Where “and” joins values, the source holds several entries; their conditions need not be identical. Equal values may be shown once. Read-outs that look alike come from different tables or passages of the source.

Columns and labels:
[1] = test system: NiV-pVSV; experiment: microbe, parasite or virus in culture; format: cell-based, Nipah virus envelope pseudotyped onto VSV
[2] = test system: pVSV particles
[3] = test system: enveloped viruses; conditions: cited from earlier work
[4] = test system: enveloped viruses, such as influenza, HIV-1 and TBEV; conditions: cited from earlier work
[5] = Vesicular stomatitis virus, Vero

CCCN1C(=O)/C(=C/c2ccc(-c3ccccc3)o2)SC1=S [LJ-003, (Z)-3-Propyl-5-(5-phenyl-2-furyl)methylene-4-oxothiazolidine-2-thione]
IC50 [1]: 950 nM
IC50 [1, 5]: 900 nM

CN1C(=O)/C(=C/c2ccc(-c3ccccc3)o2)SC1=S [LJ-005, (Z)-3-Methyl-5-(5-phenyl-2-furyl)methylene-4-oxothiazolidine-2-thione]
IC50 [1]: 1220 nM
IC50 [1, 5]: 1500 nM

CCN1C(=O)/C(=C/c2ccc(-c3cccc(F)c3)o2)SC1=S [LJ-007, (Z)-3-Ethyl-5-[5-(3-fluorophenyl)-2-furyl]methylene-4-oxothiazolidine-2-thione]
IC50 [1]: 1450 nM
IC50 [1, 5]: 2500 nM

CCN1C(=O)/C(=C/c2ccc(-c3ccccc3OC)o2)SC1=S [LJ-010, (Z)-3-Ethyl-5-[5-(2-methoxyphenyl)-2-furyl]methylene-4-oxothiazolidine-2-thione]
IC50 [1]: 400 nM
IC50 [1, 5]: 800 nM

CCN1C(=O)/C(=C/c2ccc(-c3cccc(OC)c3)o2)SC1=S [LJ-011, (Z)-3-Ethyl-5-[5-(3-methoxyphenyl)-2-furyl]methylene-4-oxothiazolidine-2-thione]
IC50 [1]: 1160 nM
IC50 [1, 5]: 1500 nM

CCN1C(=O)/C(=C/c2ccc(C)o2)SC1=S [LJ-013, (Z)-3-ethyl-5-((5-methylfuran-2-yl)methylene)-2-thioxothiazolidin-4-one]
IC50 (μM) [1]: Inactive

CCN1C(=O)/C(=C/c2ccco2)SC1=S [LJ-014, (Z)-3-ethyl-5-(furan-2-ylmethylene)-2-thioxothiazolidin-4-one]
IC50 (μM) [1]: Inactive

CCN1C(=O)/C(=C/c2ccc(-c3ccccc3[N+](=O)[O-])o2)SC1=S [LJ-015, (Z)-3-ethyl-5-((5-(2-nitrophenyl)furan-2-yl)methylene)-2-thioxothiazolidin-4-one]
IC50 [1]: 1030 nM
IC50 [1, 5]: 1300 nM

CCN1C(=O)/C(=C/c2ccc(-c3ccccc3O)o2)SC1=S [LJ-016, (Z)-3-Ethyl-5-((5-(2-hydroxyphenyl)furan-2-yl)methylene)-2-thioxothiazolidin-4-one]
IC50 [1]: 2350 nM
antiviral activity in SAR discussion [1]: tolerated but led to generally lower activity
IC50 [1, 5]: 2200 nM

CCN1C(=O)/C(=C/c2ccc(-c3ccccc3N)o2)SC1=S [LJ-017, (Z)-5-((5-(2-Aminophenyl)furan-2-yl)methylene)-3-ethyl-2-thioxothiazolidin-4-one]
IC50 [1]: 1960 nM
antiviral activity in SAR discussion [1]: tolerated but led to generally lower activity
IC50 [1, 5]: 3400 nM

CCN1C(=O)/C(=C/c2ccc(-c3ccccc3)s2)SC1=S [LJ-018, (Z)-3-ethyl-5-((5-phenylthiophen-2-yl)methylene)-2-thioxothiazolidin-4-one]
IC50 [1]: 2650 nM
antiviral activity in SAR discussion [1]: retained activity, albeit at slightly reduced levels
IC50 [1, 5]: 4100 nM

CCN1C(=O)/C(=C/c2cccc(-c3ccccc3)c2)SC1=S [LJ-019, (Z)-5-(Biphenyl-3-ylmethylene)-3-ethyl-2-thioxothiazolidin-4-one]
IC50 (μM) [1]: Inactive
antiviral activity in SAR discussion [1]: inactive

CCN1C(=O)/C(=C/c2ccc(-c3ccccc3[N+]#N)o2)SC1=S.F[B-](F)(F)F [LJ-020, (Z)-3-Ethyl-5-[5-(2-diazoniophenyl)-2-furyl]methylene-4-oxothiazolidine-2-thione tetrafluoroborate]
antiviral activity in SAR discussion [1]: tolerated but led to generally lower activity

CCN1C(=O)/C(=C/c2cnc(-c3ccccc3)o2)SC1=S [LJ-023, (Z)-3-Ethyl-5-((2-phenyloxazol-5-yl)methylene)-2-thioxothiazolidin-4-one]
IC50 [1]: 2400 nM
antiviral activity in SAR discussion [1]: retained activity, albeit at slightly reduced levels
IC50 [1, 5]: 2500 nM

O=C1NC2CSC(CCCCC(=O)OCCCN3C(=O)/C(=C/c4ccc(-c5ccccc5)o4)SC3=S)C2N1 (stereo not drawn) [LJ-024]
antiviral activity in SAR discussion [1]: retained good activity
IC50 ([1]; read-out: IC50): 1900 nM and 1770 nM

C=CCN1C(=O)S/C(=C\c2ccc(-c3ccccc3)o2)C1=O [LJ-025, (Z)-3-Allyl-5-((5-phenylfuran-2-yl)methylene)thiazolidine-2,4-dione]
IC50 (μM) [1]: Inactive
antiviral activity in SAR discussion [1]: completely inactive both in vitro and in vivo
virion membrane morphology by EM [2]: not

C=CCN1C(=S)S/C(=C\c2ccc(-c3ccccc3)o2)C1=S [LJ-027]
IC50 ([1]; read-out: IC50): 900 nM

CCN1C(=S)S/C(=C\c2ccc(-c3ccccc3[N+](=O)[O-])o2)C1=S [LJ-028]
IC50 ([1]; read-out: IC50): 2010 nM

C=CCN1C(=O)S/C(=C\c2ccc(-c3ccccc3)o2)C1=S [LJ-029, (Z)-3-allyl-5-(5-phenyl-2-furyl)methylene-2-oxothiazolidine-4-thione]
IC50 [1, 5]: 4320 nM

CCN1C(=O)S/C(=C\c2ccc(-c3ccccc3[N+](=O)[O-])o2)C1=S [LJ-030, (Z)-3-ethyl-5-((5-(2-nitrophenyl)furan-2-yl)methylene)-2-oxothiazolidin-4-thione]
IC50 [1, 5]: 490 nM

O=C1NC(=S)S/C1=C\c1ccc(-c2ccccc2)o1 [LJ-031, (Z)-5-(5-phenyl-2-furyl)methylene-4-oxothiazolidine-2-thione]
IC50 [1, 5]: 1040 nM

C#CCN1C(=O)/C(=C/c2ccc(-c3ccccc3)o2)SC1=S [LJ-032, (Z)-3-(2-propynyl)-5-(5-phenyl-2-furyl)methylene-4-oxothiazolidine-2-thione]
IC50 [1, 5]: 1030 nM

C=CCN1C(=O)C(Cc2ccc(-c3ccccc3)o2)SC1=S (stereo not drawn) [LJ-033, 3-Allyl-5-((5-phenylfuran-2-yl)methyl)-4-oxothiazolidin-2-thione]
IC50 (μM) [1]: Inactive
antiviral activity in SAR discussion [1]: completely inactive

CC(=O)NCCCN1C(=O)/C(=C/c2ccc(-c3ccccc3)o2)SC1=S [LJ-034, (Z)—N-(3-(4-Oxo-5-((5-phenylfuran-2-yl)methylene)-2-thioxothiazolidin-3-yl)propyl)acetamide]
IC50 (μM) [1]: Inactive

NCCCN1C(=O)/C(=C/c2ccc(-c3ccccc3)o2)SC1=S [LJ-035, (Z)-3-(3-Aminopropyl)-5-((5-phenylfuran-2-yl)methylene)-4-oxothiazolidin-2-thione]
IC50 (μM) [1]: Inactive

CC(C)(C)OC(=O)NCCCN1C(=O)/C(=C/c2ccc(-c3ccccc3)o2)SC1=S [LJ-036, (Z)-tert-Butyl 3-(4-oxo-5-((5-phenylfuran-2-yl)methylene)-2-thioxothiazolidine-3-yl)propyl carbamate]
IC50 ([1]; read-out: IC50): 740 nM

CCCCCCCCCCCCCCCCCCCCCCO [n-docosanol]
IC50 [3]: millimolar

(Z)-3-(2,4-Dioxo-5-((5-phenylfuran-2-yl)methylene)thioxothiazolidin-3-yl) propyl-5-(2-oxohexahydro-1H-thieno[3,4-d]imidazol-4-yl)pentanoate [LJ-037]
IC50 (μM) [1]: Inactive

lysophosphotidylcholine [LPC]
required molar concentration (total lipid content) [4]: ≥ 10%
